# Laboratory results reported in patent US6596320B1, “Method for treating cancer having greater efficacy and reduced adverse effects” (BioNumerik Pharmaceuticals, Inc., priority 2002, dated 2003).
# Tests used:
# MCF7/WT (breast cancer) [1] = assay: Sequential treatment of MCF7/WT with Taxol followed by CDDP, % cell survival; type: cell-based, human; conditions: 2 hour
# Procedure: (§1) In vitro experiments were conducted to determine the efficacy of platinum/taxane combination therapy and to determine if the order of administration of the agents affected the cytotoxicity. The agents used were cisplatin (CDDP) and paclitaxel (Taxol®®), and the cell line used was MCF7/WT (breast cancer). The results of the experiments are shown below in Tables 1 and 2.
# MCF7/WT (breast cancer) [2] = assay: Sequential treatment of MCF7/WT with CDDP followed by Taxol, % cell survival; type: cell-based, human; conditions: 2 hour
# Procedure: as §1
# [3] = cited from earlier work
smiles,measurement,setting,value
"CC(=O)O[C@H]1C(=O)[C@@]2(C)[C@H]([C@H](OC(=O)c3ccccc3)[C@]3(O)C[C@H](OC(=O)[C@H](O)[C@@H](NC(=O)c4ccccc4)c4ccccc4)C(C)=C1C3(C)C)[C@]1(OC(C)=O)CO[C@@H]1C[C@@H]2O [Taxol ®, paclitaxel]","% cell survival, Average",MCF7/WT (breast cancer) [1]; Taxol 27 nM alone,88%
same,"% cell survival, Average",MCF7/WT (breast cancer) [1]; Taxol 45 nM alone,82%
same,"% cell survival, Average",MCF7/WT (breast cancer) [2]; Taxol 27 nM alone,71%
same,"% cell survival, Average",MCF7/WT (breast cancer) [2]; Taxol 45 nM alone,45%
"O=S(=O)([O-])CCSSCCS(=O)(=O)[O-].[Na+].[Na+] [Dimesna, Disodium 2,2′-dithiobis ethane sulfonate]",interference with cytotoxic effects of co-administered antineoplastic agent(s),[3]; co-administration,not to interfere with the cytotoxic effects
same,effect on unwanted toxic effects of single agent cisplatin and single agent paclitaxel,[3]; human patients,reduce the unwanted toxic effects
"[NH2][Pt]([NH2])([Cl])[Cl] [CDDP, cisplatin]","% cell survival, Average",MCF7/WT (breast cancer) [1]; CDDP 4.25 uM alone,73%
same,"% cell survival, Average",MCF7/WT (breast cancer) [1]; CDDP 8.5 uM alone,52%
same,"% cell survival, Average",MCF7/WT (breast cancer) [2]; CDDP 4.25 uM alone,71%
same,"% cell survival, Average",MCF7/WT (breast cancer) [2]; CDDP 8.5 uM alone,50%
